Measurements reported in patent publication US7531517B2, “Inhibitors of cancer cell, T-cell and keratinocyte proliferation” (4SC AG, priority 2005, dated 2009).

Biological target: T1, human Proteasome (20S proteasome, chymotryptic activity) (Homo sapiens, UniProt P28074)
T1 construct: purchased Immatics, Tübingen
Assay: chymotryptic activity of the 20S proteasome (Suc-LLVT-AMC substrate, fluorescence)
Format: biochemical
Details: for human Proteasome IC50: given in words only
Procedure: The chymotryptic activity of the 20S proteasome (Immatics, Tüibingen) was determined using a Tecan Ultra plate reader and Suc-LLVT-AMC as substrate (Bachem). In the wells of a black 96 well polypropylene plate, 2 μl of the respective inhibitor dissolved in DMSO were mixed with 50 μl substrate solution (25 mM HEPES pH 7.5 at 20° C., 0.5 mM EDTA and Suc-LLVT-AMC (in the appropriate concentration) and the reaction was initiated by adding 150 μl proteasome solution (1.3 μg/ml 20S proteasome in 25 mM HEPES pH 7.5 at 20° C., 0.5 mM EDTA, 0.033% (w/v) SDS). Substrate hydrolysis was followed by fluorescence spectroscopy (excitation wavelength: 360 nm; emission wavelength: 465 nm) for 20 min at 30° C. and initial velocities were calculated and expressed as change in relative fluorescence units (RFU) per second.

Structure (SMILES)	IC50 (unit nm [sic])	human Proteasome IC50	further results
COc1cc(C(=O)NC(/C=N/N2CC(=O)NC2=O)Cc2ccccc2)nc(OC)n1 (stereo not drawn) [Compound 14]			IC50 (unit μm [sic]): 2960 nM
O=C(/C=C/c1ccccc1)NC(/C=N\N1CC(=O)NC1=O)Cc1ccccc1 (stereo not drawn) [Compound 12]			IC50 (unit μm [sic]): 2210 nM
O=C1CN(/N=C\C(Cc2ccccc2)NC(=O)C2C=Cc3cc(Cl)ccc3O2)C(=O)N1 (stereo not drawn) [Compound 11]			IC50 (unit μm [sic]): 3540 nM
O=C1CN(/N=C/C(Cc2ccccc2)NC(=O)C(Cc2ccc3ccccc3c2)NC(=O)C(Cc2ccc(F)cc2)NC(=O)OCc2ccccc2)C(=O)N1 (stereo not drawn) [Compound 9]		nanomolar	
O=C1CN(N=CC(Cc2ccccc2)NC(=O)C(Cc2ccc3ccccc3c2)NC(=O)C(Cc2ccc(Br)cc2)NC(=O)OCc2cccnc2)C(=O)N1 (stereo not drawn) [Compound 6]		nanomolar	
CC(C)(C)OC(=O)NC(Cc1ccc(Br)cc1)C(=O)NC(Cc1ccc2ccccc2c1)C(=O)NC(/C=N/N1CC(=O)NC1=O)Cc1ccccc1 (stereo not drawn) [Compound 7]		nanomolar	
O=C1CN(/N=C/C(Cc2ccccc2)NC(=O)C(Cc2c[nH]c3ccccc23)NC(=O)C(Cc2c[nH]c3ccccc23)NC(=O)CCCCC2SCC3NC(=O)NC32)C(=O)N1 (stereo not drawn) [Compound 2]			IC50 (unit cell prints nM): 76 nM
O=C1CN(N=CC(Cc2ccccc2)NC(=O)C(Cc2ccc3ccccc3c2)NC(=O)C(Cc2ccc(Br)cc2)NC(=O)OCc2ccccc2)C(=O)N1 (stereo not drawn) [Compound 5]		nanomolar	

Continued, in another order:

IC50 (unit nm [sic])	human Proteasome IC50	Structure (SMILES)	further results
157 nM		O=C1CN(/N=C/C(Cc2ccccc2)NC(=O)C(Cc2c[nH]c3ccccc23)NC(=O)C(Cc2c[nH]c3ccccc23)NC(=O)OCc2ccccc2)C(=O)N1 (stereo not drawn) [Compound 1]	
224 nM		O=C1CN(/N=C/C(Cc2ccccc2)NC(=O)C(Cc2c[nH]c3ccccc23)NC(=O)C(Cc2c[nH]c3ccccc23)NC(=O)Cc2cccc(Oc3ccccc3)c2)C(=O)N1 (stereo not drawn) [Compound 3]	
133 nM		O=C1CN(/N=C/C(Cc2ccccc2)NC(=O)C(Cc2c[nH]c3ccccc23)NC(=O)C(Cc2c[nH]c3ccccc23)NC(=O)OCc2cnccn2)C(=O)N1 (stereo not drawn) [Compound 8]	
61 nM		O=C1CN(/N=C/C(Cc2ccccc2)NC(=O)C(Cc2c[nH]c3ccccc23)NC(=O)C(Cc2c[nH]c3ccccc23)NC(=O)OCc2cccnc2)C(=O)N1 (stereo not drawn) [Compound 4]	
